The source of these data is PubChem BioAssay (NCI).

Several values for one entry are separate records, joined by “and”; a condition that tells them apart may be missing. Equal values may be shown once.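 Method: 48-hour compound exposure of cells in 96-well plates, five concentrations, linear interpolation of endpoints. GI50 is the concentration that inhibits growth by half. TGI denotes the concentration required for complete inhibition of growth.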

Test systems include SN12K1 renal; DLD-1 colon; M19-MEL melanoma; P388 leukemia; XF 498 CNS; SNB-78 CNS; P388/ADR leukemia; DMS 114 small cell lung; HOP-18 NSCLC; KM20L2 colon; LXFL 529 NSCLC; RXF-631 renal.
Holding throughout (test): NCI tumour cell line growth inhibition, 48 h

`CC1[C@@H]2C[C@@H]3O[C@@]34[C@H]3CCC5Cc6nc7c(nc6C[C@@]5(C)C3(O)CC(=O)[C@@]24CO[C@]12OC(C)(C)CC2O)CC1CC[C@@H]2C3=C[C@H]4O[C@@]5(O[C@@](C)(CO)C[C@@H]5O)C(C)[C@@]4(O)[C@]3(C)[C@@H](O)CC2[C@]1(C)C7` (stereo partly specified): the TGI in the assay with SN12K1 renal was 0.666 µM; with DLD-1 colon it was over 3.52 µM; in the assay on M19-MEL melanoma, over 3.52 µM; in the assay on P388 leukemia it was 0.357 µM; in the assay on XF 498 CNS, 0.0328 µM; in the assay with SNB-78 CNS, 0.622 µM. In addition, the TGI in the assay with P388/ADR leukemia was 0.232 µM; in the assay with DMS 114 small cell lung, 1.09 µM; with HOP-18 NSCLC, over 3.52 µM; with KM20L2 colon, 0.244 µM.
For `C[S+](C)C1(c2ccccc2)C(=O)c2ccccc2C1=O`, the TGI is over 100 µM with DLD-1 colon; over 100 µM in the assay with M19-MEL melanoma; 94 µM in the assay on XF 498 CNS; over 100 µM in the assay on SNB-78 CNS; over 100 µM with LXFL 529 NSCLC; over 100 µM in the assay on DMS 114 small cell lung. Further, the TGI in the assay on HOP-18 NSCLC and in the assay with KM20L2 colon was over 100 µM throughout.
For `O=c1cc(-c2ccccc2)[nH]c2c(F)ccc(F)c12`, the TGI with DLD-1 colon, in the assay on M19-MEL melanoma, in the assay with LXFL 529 NSCLC, in the assay on DMS 114 small cell lung and with HOP-18 NSCLC was over 100 µM in each case.
Take `COc1cccc2c1C(=O)c1c(O)c3c(c(O)c1C2=O)C[C@@](O)(C(=O)CO)CC3OC1CC(NCCCCC(OC(C)=O)OC(C)=O)C(O)C(C)O1` (stereo partly specified): the GI50 is 0.00247 µM in the assay on DLD-1 colon; 0.00156 µM in the assay on M19-MEL melanoma; 0.00263 µM in the assay on LXFL 529 NSCLC; 0.00083 µM with DMS 114 small cell lung; 0.0078 µM in the assay on HOP-18 NSCLC; 0.000858 µM in the assay on KM20L2 colon. For the same compound, the TGI in the assay on DLD-1 colon is 0.245 µM; in the assay with M19-MEL melanoma, 0.00334 µM; in the assay with RXF-631 renal, 0.00803 µM; with SNB-78 CNS, 0.00804 µM; in the assay on DMS 114 small cell lung, 0.00291 µM; in the assay on HOP-18 NSCLC, 0.00926 µM and 0.0807 µM. Further, in the assay with KM20L2 colon, the TGI was 0.00875 µM.
`CN(C)CCSc1nccc(-c2ccc(-c3ccnc(SCCN(C)C)n3)s2)n1`: the TGI came to 24.6 µM with SN12K1 renal; 23 µM with DLD-1 colon; 26.6 µM in the assay on M19-MEL melanoma; 3.18 µM in the assay on P388 leukemia; 29.4 µM with XF 498 CNS; 31 µM in the assay on SNB-78 CNS. Besides, the TGI in the assay on P388/ADR leukemia worked out at 6.74 µM; in the assay on DMS 114 small cell lung it was 25.5 µM; in the assay with HOP-18 NSCLC it was 67.2 µM; in the assay on KM20L2 colon, 23.6 µM.
For `C/C(=N/OCCC(=O)O)C1CC1`, the TGI with DLD-1 colon, in the assay on M19-MEL melanoma, with XF 498 CNS, in the assay on SNB-78 CNS, in the assay with LXFL 529 NSCLC and in the assay on DMS 114 small cell lung was over 100 µM in each case. Moreover, the TGI in the assay with HOP-18 NSCLC and in the assay with KM20L2 colon was over 100 µM each time.
In the case of `Cc1cc(N)c2cc(NC(=O)CCCCCCCCC(=O)Nc3ccc4nc(C)cc(N)c4c3)ccc2n1`, the TGI in the assay with DLD-1 colon, in the assay on M19-MEL melanoma, in the assay with XF 498 CNS, with SNB-78 CNS, in the assay on LXFL 529 NSCLC and with HOP-18 NSCLC was over 100 µM each time. Moreover, in the assay on KM20L2 colon, the TGI was over 74.3 µM.
As to `O=C(O)CSc1nnc(COc2ccccc2)n1-c1ccccc1`, the TGI with DLD-1 colon, in the assay with M19-MEL melanoma, in the assay with SNB-78 CNS, in the assay with LXFL 529 NSCLC, with DMS 114 small cell lung and with KM20L2 colon was over 100 µM each time.
As for `CN(C)CC(C)(C)C(=O)/C=C/c1ccccc1`, the TGI in the assay on DLD-1 colon amounted to 74.3 µM; in the assay with M19-MEL melanoma, 32.2 µM; in the assay on XF 498 CNS, 23.8 µM; in the assay on SNB-78 CNS, 88.6 µM; in the assay on LXFL 529 NSCLC it was 24.9 µM; with DMS 114 small cell lung, 29.1 µM. Besides, the TGI in the assay on HOP-18 NSCLC worked out at 49.8 µM; with KM20L2 colon, 28.8 µM.
For the compound `CCC(C)Cn1c(C)nc2c1C(=O)c1ccccc1C2=O` (stereo unspecified), the TGI in the assay with DLD-1 colon is over 100 µM; in the assay on M19-MEL melanoma, 33.9 µM; in the assay with XF 498 CNS, 56 µM; with SNB-78 CNS it was over 100 µM; in the assay with LXFL 529 NSCLC, over 100 µM; in the assay with KM20L2 colon, over 100 µM.
